Measurements: patent US10919941B2, “Functional lipid constructs” (KODE BIOTECH LIMITED, priority 2007, dated 2021)
Read-outs that look alike come from different tables or passages of the source.

Legend:
[1] = 25° C.; cited from earlier work
red blood cells = assay: Avidin-Alexafluor fluorescence of RBCs modified with biotin-lipid construct; assay type: cell-based; design: key: 0 (no fluorescence observed); 4 (maximum fluorescence observed); conditions: for fluorescence score (Avidin-AF), RBCs: Day 0
Protocol: A stock solution of Avidin-Alexafluor (Avidin-AF) was prepared in sterile phosphate buffered saline (PBS) at a concentration of 2 mg/mL. A stock solution of biotinylated gangliocide (BioG) was prepared in sterile PBS at a concentration of 5 mg/mL.
Incubations were performed in a plastic ependorf tube of nominal volume 1.5 mL for 2 hours at 37° C. in a water bath. O group RBCs were incubated with a solution of BioG at a concentration of 0.33 mg/mL as a positive control.
Incubated RBCs were washed 3 times with PBS in a mini centrifuge. Fluorescent labeling of the washed, modified RBCs was performed by adding 10 μL of a solution of Avidin-AF at a concentration of 0.1 mg/mL. The RBCs were then incubated in the dark for 1 hour at 37° C. in a water bath and washed 3 times with PBS.
85% solution of the washed, fluorescent labeled RBCs were viewed on a slide with cover slip under a fluorescent microscope at 488 nm and photographic exposure of 1.903 (FIG. 6). The intensity of the fluorescent signal was recorded using a scoring system of 0 (no fluorescence observed) to 4 (maximum fluorescence observed).
Retention of the construct by the RBCs was assessed by incubation with Avidin-AF as before.

spermatozoa = system: spermatozoa
Protocol: Spermatozoa were washed and isolated by layering 1.1 mL of fresh semen over a gradient of SpermGrad 125 (Vitrolife 10099; 2 mL of 40% solution over 2 mL of 80% solution in a 15 mL round bottom tube) and centrifuging at 500×g for 20 min.
The bottom layer of the gradient (c. 0.7 mL was transferred to 4 mL round bottom tubes and c. 2 mL flushing (handling) media (Medicult 10840125A) added. The tube was centrifuged at 300×g for 10 min and the spermatozoa washed two more times (mixing by tube inversion).
Samples of washed spermatozoa were incubated overnight at 37° C. in a 5% CO2 atmosphere.
Open tubes were incubated at 37° C. in a 5% CO2 atmosphere prior to addition of c. 70 μL spermatozoa (c. 25×10^6/mL) to each tube and incubation for 120 min (A), 60 min (B), 30 min (C), 10 min […] and 120 min (E).
Following incubation a couple of drops of flushing media were added and the tubes centrifuged at 300×g for 5 min. The spermatozoa were washed two more times with flushing media and before being re-suspended in culture media to a final volume of 100 μL.
Streptavidin beads at a concentration of c. 6.25×10^6/100 μL were diluted 35 times in BSA plus flushing media to provide a ratio of 0.1 beads/spermatozoa when mixed in equal volume with a diluted suspension of the modified spermatozoa.
A volume of 5 μL of a diluted suspension of the modified spermatozoa was mixed on a slide with 5 μL of a diluted suspension of streptavidin beads and covered with a coverslip.
The mixture was observed under a microscope at 400× magnification.
The assessment of the attachment of streptavidin beads to modified spermatozoa is recorded in Table 27.

group 0 RBCs = conditions: construct 0.5 mg/ml
Protocol: Unmodified group A RBCs were used as a second population of cells.
Both populations of cells were incubated for 37° C. for 2 hrs in a water bath and then washed 2× in PBS and 1× in Celpresol using an Immufuge II (low, 1 min). The concentration of cells in each suspension was made up to 2% by adding 1.5 mL.
The suspensions of RBCs were mixed with avidinylated magnetic Dynabeads at an approximate ratio of RBC:bead of 1 and incubated for 10 min at room temperature on a gyrator. Samples of the first and second populations of RBCs were then mixed in equal volumes (35 μl each) in an ependorf tube for two minutes.
The contents of the ependorf were transferred to the well of a 96-well plate and a magnet was applied to the underside of the well for 1 minute. The supernatant was carefully removed with the magnet applied and without disruption of the beads. The blood grouping of the cells of the supernatants were then assessed by applying 30 μl of supernatant and 30 μl anti-A antibody to a Dynamed™ gel card. Cards were spun for 10 min in a centrifuge.

murine embryos = assay: Avidin-Alexafluor fluorescence of murine embryos modified with biotin-lipid construct; assay type: cell-based
Protocol: Murine embryos (morula/early blastocyst stage, 3.5 day) were incubated in 50 microlitre microdrops in Blastassist™ culture media.
The zona pellucida of the embryos was removed by treatment with 0.5% pronase (4 minute incubation) and washing 3 times in embryo handling media prior to introduction into the microdrops. Each microdrop was equilibrated 5% CO2 at 37° C. overnight prior to introduction of the embryos.
Microdrops containing embryos and BioG were incubated for 40 minutes in 5% CO2 at 37° C.
Following incubation each group of embryos was washed 3 times in handling media and transferred to 50 microlitre microdrops containing 2 mg/ml, Avidin-AF microdrops for fluorescent labelling. The microdrops containing transferred embryos were incubated at 37° C. for 30 minutes in the dark.
Each group of embryos was then washed 3 times in handling media and mounted on a glass microscope slide for viewing. Embryos were viewed under a fluorescent microscope at 488 nm. The intensity of the fluorescence was recorded using a scoring system of 0 (no fluorescence) to 4 (maximum fluorescence).

RL95-2 monolayers [2] = system: RL95-2 monolayers
RL95-2 cells = conditions: for Mean Fluorescence: T = 24 hr, Serum-containing
A group red blood cells = conditions: construct 1 mg/mL, 37° C. 2 hours; wells washed 3× with PBS
Protocol: A volume of 60 μL washed A group red blood cells (RBCs) was modified by incubation with 20 μL of the dilution of the construct at 37° C. for 2 hours.
The modified RBCs were washed twice in PBS and once in Celpresol™ as described above. A 2% cell suspension of washed cells (modified or control) was prepared in Celpresol™ and cell concentration (150×10^6/mL) determined using a haemocytometer. Similarly the concentration of a suspension streptavidin beads (134×10^6/mL) was determined.
A volume of 50 μL of a suspension of RBCs was added to provide a bead to RBC ratio of c. 1:1 and incubated at room temperature for 1 hour to allow RBCs to settle.
The wells were washed 3× with PBS, aspirating the washing solution with a pipette.

RL95-2 monolayers [3] = system: RL95-2 monolayers; remark: listed apart in the source
Protocol: The modification of monolayers of the cell line RL95-2 (established from a human endometrial adenocarcinoma (ATCC HTB CRL 1671)) in serum-free and serum-containing media was evaluated.
D-MEM/F12 (Gibco 11320-033, Invitrogen NZ) containing 1% penicillin/streptomycin (Gibco 15140-122, Invitrogen NZ) was used as a serum-free medium. D-MEM/F12 10% FBS (Gibco 10091-130, Invitrogen NZ) containing 1% penicillin/streptomycin and […] insulin (Gibco 12585-014, Invitrogen NZ) was used as a serum-containing medium.
A suspension of the cell line RL95-2 was diluted in pre-warmed serum-containing media to the required concentration e.g. 4×10^5 cells/mL. A 25 μL volume of the suspension was used to seed the required wells in a Terasaki tray so that each treatment was performed in duplicate. The plates were incubated overnight in a 5% CO2, 37° C. incubator until the monolayer was approximately 60% confluent.
Trays were incubated at 37° C., 5% CO2 for 120 min.
The cells were then washed and a 12 μl volume of a 0.1 mg/mL solution of Avidin Alexa Fluor® 488 added. The cells were then incubated at room temperature for a further 30 minutes in the dark.
The monolayers were finally washed 3 times with PBS, the trays inverted and photographed using an Olympus BX51 fluorescent microscope at 200× magnification, exposure time 475 ms (FIG. 12).

[4] = molecular target: Miltenberger antigen MiIII on natural human red cells (human) (UniProt P02724); assay: saline phase; cell R1Rz 11291347
[5] = molecular target: Miltenberger antigen MiIII on natural human red cells (human) (UniProt P02724); assay: BioVue AHG; cell 11297161
[6] = molecular target: Miltenberger antigen MiIII on natural human red cells (human) (UniProt P02724); assay: AHG; cell Abtectcell III 8245009
[7] = molecular target: Miltenberger antigen MiIII on natural human red cells (human) (UniProt P02724); assay: AHG; cell R2R2 11297161
[8] = molecular target: Miltenberger antigen MiIII on natural human red cells (human) (UniProt P02724); assay: saline phase; cell R2R2 11297161
[9] = molecular target: Miltenberger antigen MiIII on natural human red cells (human) (UniProt P02724); assay: AHG; cell R1Rz 11291347
[10] = molecular target: Miltenberger antigen Mi?X on natural human red cells (human); assay: BioVue AHG; cell C.BR
[11] = molecular target: Miltenberger antigen Vw on natural human red cells (human) (UniProt P02724); assay: BioVue AHG; cell 9422184

In the case of O=C(O)CCCC[C@@H]1SC[C@@H]2NC(=O)N[C@@H]21 [Biotin, [3aS-(3aα, 4β, 6aα)]-hexahydro-2-oxo-1H-thieno[3,4-d]imidazole-4-pentanoic acid], the “solubility in 95% alcohol” value [1] is given as “approximately 80 mg/100 mL” and the solubility in water [1] is given as “approximately 22 mg/100 mL”.

In the case of Biotin-CMG(2)-Ad-DOPE, the “fluorescence score (Avidin-AF), RBCs” value (red blood cells; dilution 0.001 mg/ml) is reported as 0, the “fluorescence score (Avidin-AF), RBCs” value (red blood cells; dilution 0.01 mg/ml) is reported as 1 and the “fluorescence score (Avidin-AF), RBCs” value (red blood cells; dilution 0.1 mg/ml) is reported as 2. The “fluorescence score (Avidin-AF), RBCs” value (red blood cells; dilution 1 mg/ml) was 4, the “fluorescence score (Avidin-AF), RBCs, retention” value (red blood cells; dilution 1 mg/ml, Day 14 of storage) was 4 and the “Number of beads attached to spermatozoa” value (spermatozoa; treatment A, incubation time 120 min, 30 min, with cross-linking) was 10-15 (with. For the same molecule, the “Number of beads attached to spermatozoa” value (spermatozoa; treatment A, incubation time 120 min, Immediate) was 10-12, the “Number of beads attached to spermatozoa” value (spermatozoa; treatment B, incubation time 460 min, 30 min) was 8 and the “Number of beads attached to spermatozoa” value (spermatozoa; treatment C, incubation time 30 min, 30 min) was 3. For the same molecule, the “Number of beads attached to spermatozoa” value (spermatozoa; treatment C, incubation time 30 min, Immediate) was 1-3, the “Number of beads attached to spermatozoa” value (spermatozoa; treatment D, incubation time 10 min, 30 min) was 1 and the “Number of beads attached to spermatozoa” value (spermatozoa; treatment D, incubation time 10 min, Immediate) was 1. The “retention of modified group 0 RBCs by the magnet from mixture with unmodified group A RBCs” value (group 0 RBCs) was “Retention of the 0 group RBCs by the magnet was demonstrated”, the “fluorescence score (Avidin-AF), murine embryos” value (murine embryos; 0.1 mg/mL, n = 21) was 2 and the “fluorescence score (Avidin-AF), murine embryos” value (murine embryos; 1 mg/mL, n = 19) was 1. For the same molecule, the “fluorescence score (Avidin-AF), murine embryos” value (murine embryos; 2 mg/mL, n = 19) was 1, the “internalisation of Avidin Alexa Fluor 488 fluorescence” value (RL95-2 monolayers [2]; incubated at 4° C.) was “No internalization was observed” and the “internalisation of Avidin Alexa Fluor 488 fluorescence” value (RL95-2 monolayers [2]; incubated at 37° C.) was “fluorescence starts to internalize within 4 hr”. For the same molecule, the “Mean Fluorescence” value (RL95-2 cells; 20 μg/mL) was 0, the “Mean Fluorescence” value (RL95-2 cells; 100 μg/mL) was 0 and the “fluorescence 24 hr post-insertion, serum-free media” value (RL95-2 cells; RL95-2 cells, reduced from T=0) was “Fluorescence was detected”. For the same molecule, the “retention of modified RBCs by streptavidin beads on magnet after washing” value (A group red blood cells) was “retained”, the “Mean Fluorescence” value (RL95-2 monolayers [3]; 100 μg/mL, insertion time 30) was 3 and the “fluorescence of RL95-2 cell membrane, serum-free media” value (RL95-2 monolayers [3]; construct 20, 100 and 500 μg/mL) was “homogenous intense fluorescent signal”. For the same molecule, the “fluorescence of RL95-2 cell membrane, serum-containing media” value (RL95-2 monolayers [3]; same concentrations (20, 100 and 500 μg/mL)) was “weakened fluorescence” and the “intensity of fluorescence versus insertion time” value (RL95-2 monolayers [3]; serum-free media) was “increased with increasing insertion time”.

TAP1 showed an agglutination score [4] of 8, an agglutination score [5] of 10 and an agglutination score [6] of 10. For the same molecule, the agglutination score [7] was 10, the agglutination score [8] was 8 and the agglutination score [9] was 10. The agglutination score [10] was 12 and the agglutination score [11] was 5.
